Legend:
[1] = test system: nuo-51^A357V mutant of Podospora anserina; assay: drug drop test: restoration of thermosensitive growth (halo); assay type: cell-based; details: 10 mM in DMSO on 6 mm discs, 33° C.
Experimental: The mutant mycelium, scratched from a 2 days culture on M2 plates at 28° C. was mixed in a FastPrep apparatus and spread on fresh square plates. 6 mm cellulose discs are then dropped and spotted with the various compounds at 10 mM in DMSO and plates were incubated at 33° C. Within 4 to 6 days a putative resumption of growth around filters (i.e. halo) is observed.

[2] = in e.g. alcohol or chloroform; cited from earlier work

SMILES | toxicity in drug drop test [1] | thermosensitive growth of the mutant (halo around filter) ([1]; 4 to 6 days) | solubility [2]
CCN(CCCc1ccccc1)CCCc1ccc(O)cc1 [4-Hydroxy Alverine, 4-hydroxy Alverine] | without toxicity | rescue the growth | –
CCN(CCCc1ccccc1)CCCc1ccccc1 [Alverine, N-ethyl-3-phenyl-N-(3-phenylpropyl)propan-1-amine] | – | – | high solubility
